Source: PubChem BioAssay (NCI)
“And” between values parts separate entries of the source, which are not always exact repeats. Equal values may be shown once.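 Tested at 5 concentrations; 48 h exposure; 96-well plates; endpoints linearly interpolated, else capped at highest concentration. Abbreviation: GI50, concentration required for 50% inhibition of growth. The concentration for full growth arrest is given as TGI.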

Columns and labels:
Assay in all cases: DTP human tumour cell line panel, 48 h
KM12 colon = test system: KM12 colon
NCI-H460 lung = test system: NCI-H460 lung
MOLT-4 leukemia = test system: MOLT-4 leukemia
RXF 393 renal = test system: RXF 393 renal
TK-10 renal = test system: TK-10 renal
IGROV1 ovarian = test system: IGROV1 ovarian
SNB-19 CNS = test system: SNB-19 CNS
HCT-15 colon = test system: HCT-15 colon
SR leukemia = test system: SR leukemia
UACC-257 melanoma = test system: UACC-257 melanoma

Row | SMILES | TGI (KM12 colon) | TGI (NCI-H460 lung) | TGI (MOLT-4 leukemia) [µM] | TGI (RXF 393 renal) | TGI (TK-10 renal) | TGI (IGROV1 ovarian) | TGI (SNB-19 CNS) | TGI (HCT-15 colon) | TGI (SR leukemia) [µM] | TGI (UACC-257 melanoma) | GI50 (KM12 colon) | GI50 (NCI-H460 lung) | GI50 (MOLT-4 leukemia) [µM] | GI50 (RXF 393 renal) | GI50 (TK-10 renal) | GI50 (IGROV1 ovarian) | GI50 (SNB-19 CNS) | GI50 (HCT-15 colon) | GI50 (SR leukemia) [µM] | GI50 (UACC-257 melanoma)
1 | CN(C)CC1CCCCCCCCCCCCC(CN(C)C)C1=O (stereo unspecified) | 24 µM | 27.6 µM | 20.8 | 24 µM | 27.9 µM | 33.1 µM | 31.6 µM | 34.8 µM | 14 | 29.9 µM |  |  |  |  |  |  |  |  |  | 
2 | Cn1c(=O)c2[nH]c(CCCc3ccc([N+](=O)[O-])cc3)nc2n(C)c1=O | > 100 µM | > 100 µM | > 100 | > 100 µM | > 100 µM | > 100 µM | > 100 µM | > 100 µM | > 100 | > 100 µM |  |  |  |  |  |  |  |  |  | 
3 | CCOC(=O)[C@@H](C)C[C@H](Cc1ccccc1)NC(=O)c1csc([C@@H](C[C@H](C(C)C)N(C)C(=O)[C@@H](NC(=O)[C@H]2C[C@H](O)CCN2C)C(C)C)OC(C)=O)n1 |  | > 16.7 µM | > 16.7 |  | > 16.7 µM | > 16.7 µM | > 16.7 µM | > 16.7 µM | > 16.7 | > 16.7 µM | 0.0023 µM | 0.0063 µM | 0.00714 | 0.00955 µM | 0.426 µM | 0.00209 µM | 0.00312 µM | 0.149 µM | < 0.00167 | > 16.7 µM
4 | O=C(/C=C/c1cccc(S(=O)(=O)Nc2ccccc2)c1)NO | 9.14 µM and 10.7 µM | 34 µM and 5.42 µM | > 29.9 | 1.79 µM and 1.88 µM | 3.19 µM and 1.73 µM | 4.43 µM and > 26.6 µM | 19.5 µM and 41.5 µM | > 48.9 µM and 68.5 µM | 22.8 | 10.8 µM and > 100 µM | 0.426 µM and 0.0714 µM | 0.376 µM and 0.116 µM |  | 0.342 µM and 0.101 µM | 0.215 µM and 0.024 µM | 0.623 µM and 0.116 µM | 0.841 µM and 0.835 µM | 1.08 µM and 1.29 µM |  | 0.553 µM and 0.25 µM
5 | O=C1/C(=C\c2ccccc2)CN(C(=O)c2ccccc2)C/C1=C\c1ccccc1 | 3.4 µM | 8.48 µM | 43.6 | 3.21 µM | 9.06 µM | 6.57 µM | 15.1 µM | 5.9 µM | 2.9 | 5.16 µM | 1.79 µM | 2.8 µM | 3.19 | 1.68 µM | 2.83 µM | 2.66 µM | 3.79 µM | 2.02 µM | 0.335 | 2 µM
6 | CCCCN(CC)CCCCCCCCCCN1CCCc2cc(OC)ccc21 | 5.14 µM | 6.6 µM | 10.5 | 4.93 µM | 3.91 µM | 12.9 µM | 18.8 µM | 13.6 µM | 5.56 | 9.2 µM | 2.31 µM | 2.52 µM | 3.09 | 2.34 µM | 1.89 µM | 3.18 µM | 4.01 µM | 3.3 µM | 1.94 | 3.34 µM
7 | Brc1ccc(Nc2nc3ccccc3nc2Nc2ccc(Br)cc2)cc1 | 8.96 µM | 2.56 µM | 9.45 | 6.38 µM | 6.6 µM | 13.5 µM | 12.2 µM | 3.21 µM | 5.52 | 5.9 µM | 1.4 µM | 0.39 µM | 1.15 | 1.49 µM | 1.81 µM | 1.43 µM | 0.591 µM | 0.507 µM | 0.715 | 2.01 µM
8 | C=CCC12CCC(=O)[C@@]1(C)CC=C(O)C2=O (stereo partly specified) | > 100 µM | > 100 µM | > 100 | > 100 µM | > 100 µM | > 100 µM | > 100 µM | > 100 µM | > 100 | > 100 µM |  |  |  |  |  |  |  |  |  | 
9 | O=C1c2cccnc2C(=O)c2c1c(C(=O)OCCc1ccccn1)c1ccccn21 | > 22.4 µM | 0.079 µM | > 36.7 | 1.4 µM | 2.19 µM | 4.73 µM | 1.59 µM | 1.46 µM | > 100 | 0.583 µM | 0.0946 µM | < 0.01 µM | 1.09 | 0.124 µM | 0.34 µM | 0.0421 µM | 0.0308 µM | 0.0145 µM | < 0.01 | 0.152 µM
10 | Oc1ccc(Cc2ccc(O)c(C3CC(c4ccc(Cl)cc4)=NN3)c2)cc1C1CC(c2ccc(Cl)cc2)=NN1 (stereo unspecified) | > 67.8 µM | 8.87 µM | > 100 | > 38.8 µM | > 100 µM | > 72.3 µM | > 43.6 µM | > 35.8 µM | > 100 | 19.2 µM | 3.34 µM | 2.19 µM | 2.84 | 3.48 µM | 4.79 µM | 3.69 µM | 3.65 µM | 2.26 µM | 2.77 | 3.1 µM
11 | O=C(Nc1ccc(I)cc1)c1cccc([N+](=O)[O-])c1O | > 100 µM | > 100 µM | 92.3 | 9.09 µM | > 100 µM | > 100 µM | > 100 µM | 40.9 µM | 19.8 | 8.57 µM | 4.05 µM | 3.86 µM | 3.38 | 2.49 µM | 3.56 µM | 6.15 µM | 3.68 µM | 3.36 µM | 2.87 | 2.96 µM
12 | CC(C)OCc1cc(CN2CCN(c3cccc(Cl)c3)CC2)c(O)c2ncccc12 | 13.2 µM | 11.2 µM | 3.41 | 20.2 µM | 21 µM | 16.6 µM | 21.7 µM | 17.6 µM | 10.2 | 9.58 µM | 0.574 µM | 0.41 µM | 0.362 | 2.87 µM | 0.837 µM | 0.621 µM | 0.504 µM | 0.153 µM | 0.403 | 1.56 µM
13 | O=c1nc(N2CCCC2)nc(N2CCCC2)s1 | > 100 µM | > 100 µM | > 100 | > 100 µM | > 100 µM | > 100 µM | > 100 µM | > 100 µM | > 100 | > 100 µM |  |  |  |  |  |  |  |  |  | 
14 | N#Cc1c2ccccc2c2nnc3ccc(C(F)(F)F)cc3n12 | > 100 µM | > 100 µM | > 100 | 80.3 µM | > 100 µM | > 100 µM | > 100 µM | > 100 µM | > 100 | 76.3 µM | 61.2 µM | 28.7 µM | 10.4 | 23.4 µM | 23 µM | 47.9 µM | > 100 µM | 40.6 µM | 0.214 | 21.2 µM
